# Reference: US10787430B2, “Hemoglobin modifier compounds and uses thereof” (FronThera U.S. Pharmaceuticals LLC, priority 2016, dated 2020)
# How the values were obtained:
# [1] = molecular target: T1, hemoglobin (20% hct blood) (Homo sapiens, UniProt P68871+P69905); assay: Dose-dependent whole blood OEC studies; assay type: cell-based; details: 37° C., 1 hr; for delta p50 0.2 mM: 0.2 mM compound; for delta p50 0.5 mM: 0.5 mM compound
# T1 construct: Normal whole blood was collected from adult healthy donors; from tissue; host or cells: normal human whole blood (red blood cells), adult healthy donors
# How it was run: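 Human whole blood at 20% hct shaken with 0.2, 0.5 or 1 mM compound at 37° C. for 1 hr; DMSO (1%) vehicle control. Oxygen equilibrium curves gave pO2 and Hb oxygen saturation (sO2), reported as delta p50%.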
# [2] = test system: sickled HbSS whole blood (RBC sickling); assay: Anti-sickling assay in HbSS sickled blood under hypoxic induction; assay type: cell-based, human; details: HbSS whole blood 26% Hct, 20 mins hypoxic induction; 0.2 mM compounds (FIG. 2)
# Experimental: Materials: • Blood collected after informed consent from sickle cell individuals. • HBS buffer: 10 mM HEPES, 145 mM NaCl, pH 7.4 • Hemox buffer: Buffer provided for the hemox analyzer • Control Compound stock solution in DMSO (50 mM) stored at RT • Control Compound work solution (CWS): 10 μl of DMSO was added by Hamilton to 90 μl of HBS buffer (20 mM Hepes, 145 mM NaCl, pH 7.4) to create a working solution with a final concentration of 5 mM drug and 10% DMSO). • Compound stock solution in DMSO (50 mM) stored at RT • Compound work solution (WS): 10 μl of DMSO was added by Hamilton to 90 μl of HBS buffer (20 mM Hepes, 145 mM NaCl, pH 7.4) to create a working solution with a final concentration of 5 mM drug and 10% DMSO). • DMSO buffer: 10% DMSO (DB), same as WS but without drug. This will be used to maintain DMSO the same for different drug incubations. Test Protocol:
# Collect blood from Clinic: Blood were collected after informed consent according to an approved IRB protocol. • Run Advia 120 analysis on SCD blood, to determine Hct. • Dilute blood to 20% Hct with HBS to total volume of 3 ml. • This cell suspension (CS) will be used for all experiments.
# Incubation • 1. 200 μl CS • 2. 200 μl CS+20 μl CWS (5 mM diluted 10 times=0.5 mM control final)−(1% DMSO) • 3. 200 μl CS+20 μl WS (5 mM diluted 10 times=0.5 mM control final)−(1% DMSO) • 4. 200 μl CS+8 μl WS (0.2 mM drug final)+DB−(1% DMSO) • Incubate 30 minutes at 37° C.
# 50 μl into 1 ml HBS+2% BSA buffer. Eight time points (0-20 minutes) at 2% oxygen, 10,000 events each)
# The sickling runs provide sets samples that need to be run on the AMNIS image flow and are subsequently analyzed with pixel analysis software.
# Drug was provided at 50 mM concentration in DMSO, and stored at room temperature until use. 10 μl of DMSO was added by Hamilton to 90 μl of HBS buffer (20 mM Hepes, 145 mM NaCl, pH 7.4) to create a working solution with a final concentration of 5 mM drug and 10% DMSO). Blood was collected from a sickle cell patient in EDTA anticoagulant. To 200 μl of whole blood, a 20 or 8 μl of working solution was added resulting in a final drug concentration of 0.5 mM or 0.2 mM respectively. The DMSO concentration in both was corrected to 1%. The final hematocrit was measured by ADVIA analysis to be 26%. […] The delta hemox (%) comparing Example 29e with GBT440 is shown in FIG. 1A (0.2 mM) and FIG. 1B (0.5 mM).
# Anti-sickling is shown in FIG. 2 with M: maximum percentage of sickled cells during 20 mins of hypoxic induction, T: time needed to reach 50% of M, and Z: baseline percentage of sickled cells prior to hypoxic induction.
# CYP1A2 = molecular target: T2, CYP1A2 (Homo sapiens, UniProt P05177); assay: CYP inhibition evaluation in human liver microsomes; assay type: in vitro ADME
# T2 construct: from tissue; host or cells: human liver microsomes
# T2 sequence (P05177 1-516): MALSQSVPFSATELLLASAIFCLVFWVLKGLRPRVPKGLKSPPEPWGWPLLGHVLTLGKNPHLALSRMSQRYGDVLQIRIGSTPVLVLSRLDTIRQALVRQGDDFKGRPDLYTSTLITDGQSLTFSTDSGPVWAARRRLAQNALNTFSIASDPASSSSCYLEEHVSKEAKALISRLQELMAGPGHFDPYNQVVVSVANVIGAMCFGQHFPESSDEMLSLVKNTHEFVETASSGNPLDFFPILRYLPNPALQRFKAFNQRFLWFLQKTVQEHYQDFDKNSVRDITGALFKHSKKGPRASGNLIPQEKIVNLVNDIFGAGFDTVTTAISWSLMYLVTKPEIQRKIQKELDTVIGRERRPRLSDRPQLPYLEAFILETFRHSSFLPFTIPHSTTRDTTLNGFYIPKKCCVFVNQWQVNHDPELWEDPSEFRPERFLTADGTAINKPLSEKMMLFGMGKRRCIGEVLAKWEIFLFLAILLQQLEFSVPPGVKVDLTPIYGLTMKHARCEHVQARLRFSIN
# Description: (§1) Example A5: CYP Inhibition Evaluation in Human Liver Microsomes
# CYP2C19 = molecular target: T3, CYP2C19 (Homo sapiens, UniProt P33261); assay: as above; assay type: in vitro ADME
# T3 construct: from tissue; host or cells: human liver microsomes
# Description: as §1
# CYP2C8 = molecular target: T4, CYP2C8 (Homo sapiens, UniProt P10632); assay: as above; assay type: in vitro ADME
# T4 construct: from tissue; host or cells: human liver microsomes
# T4 sequence (P10632 1-490): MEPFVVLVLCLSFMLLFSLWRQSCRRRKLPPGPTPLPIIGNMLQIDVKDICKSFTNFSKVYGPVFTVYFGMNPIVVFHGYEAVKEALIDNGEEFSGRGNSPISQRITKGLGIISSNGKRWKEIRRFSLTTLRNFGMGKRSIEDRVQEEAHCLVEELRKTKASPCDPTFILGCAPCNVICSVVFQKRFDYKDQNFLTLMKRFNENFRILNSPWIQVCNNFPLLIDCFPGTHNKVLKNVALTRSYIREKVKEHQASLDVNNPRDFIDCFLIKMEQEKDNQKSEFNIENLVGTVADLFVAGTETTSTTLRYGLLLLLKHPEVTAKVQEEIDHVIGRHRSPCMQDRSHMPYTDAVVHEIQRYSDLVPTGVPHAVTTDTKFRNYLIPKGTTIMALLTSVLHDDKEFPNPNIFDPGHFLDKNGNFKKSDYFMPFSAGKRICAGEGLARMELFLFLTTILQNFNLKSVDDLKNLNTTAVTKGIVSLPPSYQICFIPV
# Description: as §1
# CYP2C9 = molecular target: T5, CYP2C9 (Homo sapiens, UniProt P11712); assay: as above; assay type: in vitro ADME
# T5 construct: from tissue; host or cells: human liver microsomes
# Description: as §1
# CYP2D6 = molecular target: T6, CYP2D6 (Homo sapiens, UniProt P10635); assay: as above; assay type: in vitro ADME
# T6 construct: from tissue; host or cells: human liver microsomes
# Description: as §1
# CYP3A4-M = molecular target: T7, CYP3A4-M (Homo sapiens, UniProt P08684); assay: as above; assay type: in vitro ADME
# T7 construct: from tissue; host or cells: human liver microsomes
# Description: as §1
# [3] = Microsome stability evaluation in rat liver microsomes; assay type: in vitro ADME; details: read-out: Rat microsome, t½
# Description: (§2) Example A6: Microsome Stability Evaluation in Human and Rat Liver Microsomes
# [4] = Microsome stability evaluation in human liver microsomes; assay type: in vitro ADME; details: read-out: Human microsome, t½
# Description: as §2
# T5 sequence (P11712 whole entry): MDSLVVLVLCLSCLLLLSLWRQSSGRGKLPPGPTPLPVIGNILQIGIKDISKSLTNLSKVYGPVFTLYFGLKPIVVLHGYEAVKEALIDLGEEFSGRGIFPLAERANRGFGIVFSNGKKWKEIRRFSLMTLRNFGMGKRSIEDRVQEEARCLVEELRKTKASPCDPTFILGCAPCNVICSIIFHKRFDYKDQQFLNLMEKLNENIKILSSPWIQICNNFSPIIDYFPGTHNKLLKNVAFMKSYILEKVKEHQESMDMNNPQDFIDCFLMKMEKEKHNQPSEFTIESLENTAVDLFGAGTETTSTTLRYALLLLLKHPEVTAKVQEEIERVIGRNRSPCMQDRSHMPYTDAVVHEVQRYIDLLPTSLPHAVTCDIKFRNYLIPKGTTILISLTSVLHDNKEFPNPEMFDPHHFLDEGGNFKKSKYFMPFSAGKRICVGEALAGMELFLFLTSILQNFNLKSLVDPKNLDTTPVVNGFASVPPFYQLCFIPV
# T7 sequence (P08684 whole entry): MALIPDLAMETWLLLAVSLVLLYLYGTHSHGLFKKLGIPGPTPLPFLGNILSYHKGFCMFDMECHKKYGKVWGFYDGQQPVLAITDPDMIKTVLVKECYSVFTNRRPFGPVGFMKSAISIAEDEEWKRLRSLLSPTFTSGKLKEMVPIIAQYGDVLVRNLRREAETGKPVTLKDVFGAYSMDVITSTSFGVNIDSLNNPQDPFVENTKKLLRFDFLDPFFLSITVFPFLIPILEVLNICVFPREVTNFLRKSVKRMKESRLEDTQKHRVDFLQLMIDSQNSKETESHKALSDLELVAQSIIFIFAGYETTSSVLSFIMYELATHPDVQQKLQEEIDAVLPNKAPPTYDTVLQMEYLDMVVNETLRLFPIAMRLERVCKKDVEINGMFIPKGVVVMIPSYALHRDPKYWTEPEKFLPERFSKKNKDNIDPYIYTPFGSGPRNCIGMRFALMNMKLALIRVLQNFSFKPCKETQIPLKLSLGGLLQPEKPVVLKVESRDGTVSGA
# T1 sequence (P69905 2-142 limits assumed): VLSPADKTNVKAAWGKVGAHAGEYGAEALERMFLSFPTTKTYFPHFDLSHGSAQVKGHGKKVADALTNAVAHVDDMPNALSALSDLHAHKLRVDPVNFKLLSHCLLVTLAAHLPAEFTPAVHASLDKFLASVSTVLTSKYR
# T1 sequence (P68871 2-147 limits assumed): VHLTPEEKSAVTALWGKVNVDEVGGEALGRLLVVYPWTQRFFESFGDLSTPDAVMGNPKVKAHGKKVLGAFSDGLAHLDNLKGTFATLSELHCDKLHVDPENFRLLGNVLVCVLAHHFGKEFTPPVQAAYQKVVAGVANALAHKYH
# T6 sequence (P10635 whole entry): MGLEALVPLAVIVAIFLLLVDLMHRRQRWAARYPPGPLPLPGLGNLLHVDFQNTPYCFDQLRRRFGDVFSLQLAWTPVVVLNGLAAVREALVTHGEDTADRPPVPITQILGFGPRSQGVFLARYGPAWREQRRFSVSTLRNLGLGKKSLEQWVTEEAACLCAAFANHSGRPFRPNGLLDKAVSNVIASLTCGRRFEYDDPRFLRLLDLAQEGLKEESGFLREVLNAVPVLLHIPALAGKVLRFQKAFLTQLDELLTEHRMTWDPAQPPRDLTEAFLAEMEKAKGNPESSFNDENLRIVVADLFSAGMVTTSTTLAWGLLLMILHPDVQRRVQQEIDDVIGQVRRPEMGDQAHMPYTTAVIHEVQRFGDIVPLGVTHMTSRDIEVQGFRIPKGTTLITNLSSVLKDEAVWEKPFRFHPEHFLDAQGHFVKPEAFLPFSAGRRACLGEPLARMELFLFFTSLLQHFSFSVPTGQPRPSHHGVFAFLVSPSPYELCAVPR
# T3 sequence (P33261 whole entry): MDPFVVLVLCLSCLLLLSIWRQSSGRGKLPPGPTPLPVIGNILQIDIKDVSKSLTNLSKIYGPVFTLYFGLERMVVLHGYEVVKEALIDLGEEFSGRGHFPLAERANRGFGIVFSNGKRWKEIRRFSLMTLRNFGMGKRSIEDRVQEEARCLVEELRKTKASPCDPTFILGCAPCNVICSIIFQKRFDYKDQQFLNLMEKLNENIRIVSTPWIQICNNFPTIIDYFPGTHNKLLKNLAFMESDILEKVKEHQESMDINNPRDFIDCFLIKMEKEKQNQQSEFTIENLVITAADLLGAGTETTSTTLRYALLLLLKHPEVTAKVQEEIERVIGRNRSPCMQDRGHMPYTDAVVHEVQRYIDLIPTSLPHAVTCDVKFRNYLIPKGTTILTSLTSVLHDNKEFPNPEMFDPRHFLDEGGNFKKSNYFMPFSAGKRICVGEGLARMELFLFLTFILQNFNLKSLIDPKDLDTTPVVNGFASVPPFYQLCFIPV
delta p50 0.2 mM [1],delta p50 0.5 mM [1],IC50 (CYP1A2),IC50 (CYP2C19),IC50 (CYP2C8),IC50 (CYP2C9),IC50 (CYP2D6),IC50 (CYP3A4-M),half-life [3],half-life [4],Structure (SMILES),Reduction in % sickled cells compared to untreated [2]
−18.8%,−56.6%,22 µM,6.1 µM,3.7 µM,11 µM,> 30 µM,10 µM,19 min,24 min,"[2H]C([2H])(Oc1cc(F)cc(O)c1C=O)c1cccnc1-c1ccnn1C(C)C [Example 27b, 4-fluoro-2-hydroxy-6-((2-(1-isopropyl-1H-pyrazol-5-yl)pyridin-3-yl)methoxy-d2)benzaldehyde]",−30.8%
−24.9%,−66.1%,> 50 µM,19.5 µM,> 50 µM,36.5 µM,> 50 µM,> 50 µM,11 min,11 min,"[2H]C([2H])(Oc1cccc(O)c1C=O)c1cccnc1-n1ccnc1C(C)C [Example 29e, 2-hydroxy-6-((2-(2-isopropyl-1H-imidazol-1-yl)pyridin-3-yl)methoxy-d2)benzaldehyde]",−27.1%
−14.2%,−35.1%,17.6 µM,7 µM,12.4 µM,28.1 µM,> 30 µM,> 30 µM,22 min,24 min,"CC(C)n1nccc1-c1ncccc1COc1cccc(O)c1C=O [GBT440, reference compound]",−22.4%
